This assay addresses T1, ERα (Homo sapiens, UniProt P03372).
T1 sequence (P03372 1-595): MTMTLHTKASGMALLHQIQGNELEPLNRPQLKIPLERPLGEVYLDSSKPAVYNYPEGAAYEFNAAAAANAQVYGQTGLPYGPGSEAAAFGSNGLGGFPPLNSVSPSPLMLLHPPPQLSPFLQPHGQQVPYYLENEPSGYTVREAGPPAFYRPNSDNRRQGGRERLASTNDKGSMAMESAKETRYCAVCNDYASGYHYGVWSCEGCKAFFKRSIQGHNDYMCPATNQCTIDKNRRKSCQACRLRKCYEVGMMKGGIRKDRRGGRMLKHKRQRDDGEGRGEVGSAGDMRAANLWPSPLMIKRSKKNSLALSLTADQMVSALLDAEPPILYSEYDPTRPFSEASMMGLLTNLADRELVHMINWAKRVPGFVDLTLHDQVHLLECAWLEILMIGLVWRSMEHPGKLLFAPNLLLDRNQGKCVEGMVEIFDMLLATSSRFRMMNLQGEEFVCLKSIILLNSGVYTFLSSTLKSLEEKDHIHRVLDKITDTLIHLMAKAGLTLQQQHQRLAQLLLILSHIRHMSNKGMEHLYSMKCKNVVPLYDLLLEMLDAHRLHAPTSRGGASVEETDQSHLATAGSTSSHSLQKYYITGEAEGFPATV
The assay is described as follows: fluorescence polarization competition with ES2 tracer, recombinant ER. The class given is binding. (Fluorescence polarisation rises when a labelled molecule tumbles more slowly, as on binding a larger partner.)

The results in this text go back to paper PMC4007162 (Journal of molecular endocrinology, 2011).

For the compound `Oc1ccc(Nc2nc(-c3ccc(Cl)cc3)cs2)cc1` [SKI-II, 4-[4-(4-chloro-phenyl)-thiazol-2-ylamino]-phenol], the IC50 (commonly the midpoint of a concentration-inhibition curve) was determined as 85.8 nM.
